Experimental data taken from patent publication US4091006A, “Esters of 3-hydroxyindone compounds” (priority 1975, dated 1978).
Converted amounts (≈) assume the structure as drawn.

Columns and labels:
Corn = assay: Phytotoxicity, corn; conditions: 2500 ppm, 10 days
Experimental: (§5) Experiments were also conducted to determine the phytotoxicity of representative enol ester compositions with respect to healthy fresh plants. […] The test plants were sprayed in accordance with the procedure described above for the Mite Foliage Spray Test so as to deliver approximately 100 milliliters of test solution to the leaves of each plant tested. The sprayed plants and controls were set aside for approximately 1 hour to allow the solutions to dry and were then placed in the greenhouse. After 10 days the plants were visually inspected to determine the extent of foliage injury. A rating of 1 indicates no perceptible injury; 5 indicates the plant was dead and ratings of 2, 3 and 4 indicate intermediate degrees of injury based upon the number and extent to which leaves were injured.

[1] = tested on: egg of the two-spotted mite; assay: Mite Ovicide Test; type: in vivo, Tetranychus urticae (Koch); conditions: spray on eggs, 4 days
Source text: (§1) The test procedures were as follows:
The plants were allowed to dry thoroughly.
(§2) Compositions were rated on the basis of percent kill with a rating of 1 indicating no mortality; 3 signifying an approximately 50% mortality and 5 indicating 100% mortality at the indicated dosage.

Bean = assay: Phytotoxicity, bean; conditions: 2500 ppm, 10 days
Experimental: as §5

[2] = tested on: eggs of the two-spotted mite; assay: Fumigant toxicity, Method 1 (deposit in pie plate); type: in vivo; conditions: deposit approx. 160 μg per square cm, 4 days
Experimental: (§3) Two methods were used to evaluate fumigant properties:
Method 1: Fifty mg. of each compound were dissolved in 5 ml. of acetone and poured into a 20 cm. (bottom diameter) Pyrex No. 210 pie plate. The acetone was allowed to evaporate leaving a deposit of approximately 160 μg. per square cm. The plate was then placed in the bottom of a 50 pound metal lard container (about 30 cm. in diameter and 34 cm. high). Two excised bean plants, held in a 250 ml. Erlenmeyer flask containing 100 ml. of tap water and infested with eggs of the two-spotted mite, were placed in the center of the pie plate. The container was held in the insectary (temperature 80±5° F., 50±5% R. H.) for four days before mortality determinations were made.

Cotton = assay: Phytotoxicity, cotton; conditions: 2500 ppm, 10 days
Experimental: as §5

[3] = tested on: adults and nymphal stages of the two-spotted mite; assay: Mite Foliage Spray Test; type: in vivo, Tetranychus urticae (Koch); conditions: 4 days
Source text: as §1, §2

Tomato = assay: Phytotoxicity, tomato; conditions: 2500 ppm, 10 days
Experimental: as §5

[4] = tested on: Perennial rye grass, crabgrass, red root pigweed, mustard; assay: Preliminary Herbicide Seed Germination Test; conditions: each rated 1 (no injury) to 5 (no seedlings emerged)
Source text: The thus-prepared stock suspension contained 0.5 percent by weight of compound. The test concentrations employed in the tests described hereinbelow were obtained by diluting the stock suspension with water. The test procedures were as follows:
The following seeds were used in this test:
Crabgrass -- Digitaria san-
Mustard -- Brassica pincea var.
Each of above mixtures is rolled separately in 5 gallon containers for approximately one-half hour on ball mill to insure uniform mixing of seeds and soil. For each compound four 3-inch pots are filled with soil to within 11/2 inches of top of pots. To 2 of these pots are added 70 cc. of Mixture I. To the remaining 2 pots are added 70 cc. of Mixture II. The seed-soil mixture is tamped firmly, and the pots are removed to the greenhouse and watered lightly. About 2 hours after planting, 25 milliliters of the test formulation were added to each of 2 pots for each soil-seed mixture; i.e., one replicate of each seed mixture per concentration. An equal volume of a water solution containing acetone and an emulsifier in the same concentration as the herbicidal mixture but without the candidate herbicide is also added to each of the soil-seed mixtures. These pots are used as check or control units. The test compounds are formulated by standard procedure of solution in acetone, addition of an emulsifier, and dilution with water. Tests were conducted on all compositions at low concentration (100 ppm.). Certain compositions were also tested at high concentration (1000 ppm). The pots were held in the greenhouse and watered lightly until results were taken. Ten to twelve days after application of chemical, injury is noted for each species by comparing treated vs. untreated pots. Ratings are made at both the high and the low concentrations (1000 ppm and 100 ppm) according to the following designations:
4 = few seedlings emerged and/or very severe stunting
3 = moderate reduction in stand and/or moderate stunting
2 = very slight reduction in stand and/or slight stunting
1 = no injury; seedlings appear no different with respect to stand or growth than untreated controls
Accordingly, the maximum rating for one test seed species tested at both high and low concentration is 10 and the maximum possible total preemergence rating is 40 (10 for each of the four test seed species). […] In some tests the crabgrass experiment was omitted. In these tests the maximum total rating for species tested at both high and low concentrations is 30 and 15 for species tested only at low concentrations.

[5] = tested on: egg forms of the two-spotted mite; assay: Fumigant toxicity, Method 2 (treated plants near untreated infested plants); type: in vivo; conditions: 500 ppm dip, 4 days
Experimental: as §3
Method 2: Excised bean plants infested with egg forms of the two-spotted mite were dipped in an aqueous preparation (500 ppm) of the test compound. The treated plants were transferred to 250 ml. Erlenmeyer flasks containing 100 ml. of tap water. Four flasks holding treated plants were evenly spaced around a similar flask in which were placed untreated mite-infested plants so that the leaves of the treated foliage were in close proximity (1-3 inches) to the untreated plants. Four days later mortality determinations were made.

Mite Ova = assay: whole plant or invertebrate; conditions: for Mite Ova LD95: concentration to kill 95 percent; for LC50: Tetranychus urticae, read-out: Mite Ova LD50
Experimental: The test organism was the egg of the two-spotted mite (Tetranychus urticae (Koch)), as obtained from adults reared on Tendergreen bean plants under controlled conditions of 80±5° F. and 50±5 percent relative humidity. Heavily infested leaves from a stock culture were placed on the primary leaves of two bean plants 6 to 8 inches in height, growing in a 21/2 inch clay pot. Females were allowed to oviposit for a period of 48 hours and then the leaves of the infested plants were dipped in a solution containing 800 parts of tetraethyl pyrophosphate per million parts of water in order to destroy the reproductory forms and thus prevent further egg laying. […] The plants were allowed to dry thoroughly. […] The potted plants (one pot per compound) were placed on a revolving turntable and sprayed with 100-110 milliliters of test compound formulation by use of a DeVilbis spray gun set at 40 psig. air pressure. This application, which lasted 30 seconds, was sufficient to wet the plants to run-off. As a control, 100-110 milliliters of a water solution containing acetone and emulsifier in the same concentrations as the test compound formulation, but containing no test compound, were also sprayed on plants infested with eggs. The sprayed plants were held at 80±5° F. and 50±5 percent relative humidity for 4 days, after which a microscopic examination was made of unhatched (dead) and hatched (living) eggs.
(§4) Side by side comparison tests were conducted to determine the effectiveness of selected enol ester compounds relative to (bis(p-chlorophenyl)trichlorethanol) a miticide sold under the trademark Kelthane and ovex (p-chlorophenyl-p-chlorobenzene sulfonate) two widely used commercial miticides.

Mite Adults = assay: whole plant or invertebrate; conditions: for Mite Adults LD95: concentration to kill 95 percent; for LC50: Tetranychus urticae, read-out: Mite Adults LD50
Experimental: Adults and nymphal stages of the two-spotted mite (tetranychus urticae (Koch)), reared on Tendergreen bean plants at 80±5° F. and 50±5 percent relative humidity, were the test organisms. Infested leaves from a stock culture were placed on the primary leaves of two bean plants 6 to 8 inches in height, growing in a 21/2 inch clay pot. 150-200 Mites, a sufficient number for testing, transferred from the excised leaves to the fresh plants in a period of 24 hours. Following the 24 hour transfer period, the excised leaves were removed from the infested plants. The test compounds were formulated by diluting the stock suspension with water to provide suspensions containing the desired amount of test compound per million parts of final formulation. The potted plants (one pot per compound) were placed on a revolving turntable and sprayed with 100-110 milliliters of test compound formulation by use of a DeVilbis spray gun set at 40 psi. air pressure. This application, which lasted 30 seconds, was sufficient to wet the plants to run-off. As a control, 100-110 milliliters of a water solution containing acetone and emulsifier in the same concentrations as the test compound formulation, but containing no test compound, were also sprayed on infested plants. The sprayed plants were held at 80±5° F. and 50±5 percent relative humidity for 4 days, after which, a mortality count of motile forms was made. Microscopic examination for motile forms was made on the leaves of the test plants. Any individual which was capable of locomotion upon prodding was considered living.
as §4

[6] = rating/maximum 20: 100 ppm only, four species
[7] = rating/maximum 40: 100 and 1000 ppm, four species, 10-12 days
[8] = rating/maximum 15: 100 ppm only, crabgrass omitted

Compound	Phytotoxicity Rating, Corn (Corn)	Mite Ova rating [1]	Phytotoxicity Rating, Bean (Bean)	Fumigant Toxicity Method 1 [2]	Phytotoxicity Rating, Cotton (Cotton)	Mite Adult rating [3]	Phytotoxicity Rating, Tomato (Tomato)	Herbicide (total preemergence rating) [4, 6]	Fumigant Toxicity Method 2 [5]	Mite Ova LD95 (Mite Ova) [ppm]	Mite Adults LD95 (Mite Adults) [ppm]	Herbicide (total preemergence rating) [4, 7]	LC50 (Mite Ova) [µg/mL]	LC50 (Mite Adults) [µg/mL]	Herbicide (total preemergence rating) [4, 8]
CCCCCCCCCCCCCCCCCC(=O)OC1=C(c2c(C)cc(C)cc2C)C(=O)c2ccccc21 [2-(2',4',6'-Trimethylphenyl)-3-(octadecanoyloxy)indone]	1	5 (100% mortality)	1	1	1	5 (100% mortality)	1	19/20	1	–	–	–	–	–	–
CCCCC(CC)C(=O)OC1=C(c2c(C)cc(C)cc2C)C(=O)c2ccccc21 (stereo not drawn) [2-(2',4',6'-Trimethylphenyl)-3-(2-ethylhexanoyloxy)indone]	1	5 (100% mortality)	2	1	1	5 (100% mortality)	1	–	1	6	230	29/40	–	–	–
OC(c1ccc(Cl)cc1)(c1ccc(Cl)cc1)C(Cl)(Cl)Cl [Kelthane, bis(p-chlorophenyl)trichlorethanol]	–	–	–	–	–	–	–	–	–	700	65	–	370 (≈ 999 µM)	20 (≈ 54 µM)	–
CCC(=O)OC1=C(c2c(C)cc(C)cc2C)C(=O)c2ccccc21 [2-(2',4',6'-Trimethylphenyl)-3-(propionyloxy)indone]	2	5 (100% mortality)	1	5 (80-100% control)	1	5 (100% mortality)	2	–	5 (80-100% control)	–	–	32/40	–	–	–
2-(2',4',6'-Trimethylphenyl)-3-(neodecanoyloxy)indone	2	5 (100% mortality)	2	1	1	5 (100% mortality)	1	10/20	1	–	–	–	–	–	–
CCCCCCCCCCCCOC(=O)OC1=C(c2c(C)cc(C)cc2C)C(=O)c2ccccc21 [2-(2',4',6'-Trimethylphenyl)-3-(dodecyloxycarbonyloxy)indone]	2	5 (100% mortality)	1	1	1	5 (100% mortality)	1	17/20	1	–	–	–	–	–	–
Cc1cc(C)c(C2=C(OC(=O)C(C)C)c3ccccc3C2=O)c(C)c1 [2-(2',4',6'-Trimethylphenyl)-3-(isobutyryloxy)indone]	4	5 (100% mortality)	1	5 (80-100% control)	2	5 (100% mortality)	2	–	5 (80-100% control)	–	–	37/40	–	–	–
O=S(=O)(Oc1ccc(Cl)cc1)c1ccc(Cl)cc1 [Ovex, p-chlorophenyl-p-chlorobenzene sulfonate, reference compound]	–	–	–	–	–	–	–	–	–	300	–	–	200	1000	–
CCCCCCCCSC(=O)OC1=C(c2c(C)cc(C)cc2C)C(=O)c2ccccc21 [2-(2',4',6'-Trimethylphenyl)-3-(octylthiocarbonyloxy)indone]	1	5 (100% mortality)	1	1	1	5 (100% mortality)	1	–	1	–	–	–	–	–	11/15
Cc1cc(C)c(C2=C(OC(=O)CCCCl)c3ccccc3C2=O)c(C)c1 [2-(2',4',6'-Trimethylphenyl)-3-(4-chlorobutyryloxy)indone]	2	5 (100% mortality)	1	1	2	5 (100% mortality)	2	–	1	–	–	–	–	–	14/15
CC=CCCCCCCCC(=O)OC1=C(c2c(C)cc(C)cc2C)C(=O)c2ccccc21 [2-(2',4',6'-Trimethylphenyl)-3-(undec-9-enoyloxy)indone]	2	5 (100% mortality)	2	1	1	5 (100% mortality)	2	19/20	1	–	–	–	–	–	–
Cc1cc(C)c(C2=C(OC(=O)C3CC4C=CC3C4)c3ccccc3C2=O)c(C)c1 (stereo not drawn) [2-(2',4',6'-Trimethylphenyl)-3-(endo-exonorborn-5-en-2-carbonyloxy)indone]	1	5 (100% mortality)	1	1	2	5 (100% mortality)	1	–	1	–	–	–	–	–	11/15
